Measurements published in ChEMBL document CHEMBL1201862, “PubChem BioAssay data set” (2004).
The source made the active and inactive calls.

Key:
[1] = NIH3T3 cell viability loss – ATP luminescence, mouse fibroblasts, counter-screen, dose response (AID 2010); format: functional, cell-based;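 further: cells exposed to compound for about 90 hours before reading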
[2] = Trypanosoma cruzi growth suppression in host cells – NIH3T3 host cells, beta-gal luminescence, confirmation (AID 2044); format: functional, cell-based;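 further: intracellular parasites grown in NIH/3T3 mouse fibroblasts as host cells; luminescent beta-galactosidase reporter signal from transgenic T. cruzi replicating inside host cells; inhibitors lower the luminescence signal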
[3] = A Cell Based Secondary Assay To Explore Cytotoxicity of Compounds that Sensitize Mycobacterium Tuberculosis to Beta-Lactam Antibiotics.; format: functional
[4] = viability loss in Vero cells – cytotoxicity control for Vif-APOBEC3G degradation inhibitor project, dose response (AID 1117358); format: functional; settings: Vero
Protein Tat = Protein Tat (Human immunodeficiency virus type 1 group M subtype B (isolate HXB2)(HIV-1), UniProt P04608); format: functional;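 further: tat binding to TAR RNA read out by fluorescence polarization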
Sequence of Protein Tat (P04608 whole entry): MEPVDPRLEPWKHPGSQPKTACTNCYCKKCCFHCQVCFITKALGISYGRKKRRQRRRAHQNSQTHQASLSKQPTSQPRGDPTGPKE

Large T antigen = Large T antigen (Simian virus 40, UniProt P03070); format: functional, Betapolyomavirus macacae;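 further: Confirmatory-stage PubChem screen for compounds that inhibit SV40 T antigen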
Sequence of Large T antigen (P03070 whole entry): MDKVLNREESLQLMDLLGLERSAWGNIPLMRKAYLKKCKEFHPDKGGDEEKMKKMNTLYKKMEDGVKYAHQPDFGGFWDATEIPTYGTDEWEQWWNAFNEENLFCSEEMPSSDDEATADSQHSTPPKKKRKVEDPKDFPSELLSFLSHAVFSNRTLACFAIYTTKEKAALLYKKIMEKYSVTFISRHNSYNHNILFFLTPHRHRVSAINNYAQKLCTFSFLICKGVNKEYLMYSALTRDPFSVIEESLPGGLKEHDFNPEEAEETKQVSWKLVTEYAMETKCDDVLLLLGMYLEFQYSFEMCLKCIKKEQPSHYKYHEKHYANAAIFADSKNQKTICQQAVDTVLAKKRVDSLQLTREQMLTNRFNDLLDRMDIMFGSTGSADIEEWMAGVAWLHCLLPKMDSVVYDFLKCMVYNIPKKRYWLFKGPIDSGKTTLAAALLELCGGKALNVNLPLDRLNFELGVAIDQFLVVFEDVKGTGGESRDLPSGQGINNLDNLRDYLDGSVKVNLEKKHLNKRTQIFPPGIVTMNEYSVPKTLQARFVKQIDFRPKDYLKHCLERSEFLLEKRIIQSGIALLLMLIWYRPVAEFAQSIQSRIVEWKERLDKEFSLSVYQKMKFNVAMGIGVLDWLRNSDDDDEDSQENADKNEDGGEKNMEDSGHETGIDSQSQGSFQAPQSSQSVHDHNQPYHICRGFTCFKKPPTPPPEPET

[5] = lung carcinoma cell viability loss – CellTiter-Glo luminescence, dry powder, set 17, dose response (AID 1117284); format: functional, cell-based; settings: A549
[6] = Single fluorophore orthopox expression reporter, late gene expression Measured in Cell-Based and Microorganism Combination System Using Plate Reader - 2142-08_Inhibitor_Dose_DryPowder_Activity.; format: functional
[7] = inhibitors of orthopox intermediate gene expression, dose response, cell-based, single fluorophore reporter, dry powder (AID 1117271); format: functional
[8] = molecular target: T1, Tyrosine-protein phosphatase non-receptor type 7 (Homo sapiens, UniProt P35236); test: HePTP tyrosine phosphatase activity blockers – biochemical, absorbance, leukemia target, primary screen (AID 521); format: functional
T1 sequence (P35236 whole entry): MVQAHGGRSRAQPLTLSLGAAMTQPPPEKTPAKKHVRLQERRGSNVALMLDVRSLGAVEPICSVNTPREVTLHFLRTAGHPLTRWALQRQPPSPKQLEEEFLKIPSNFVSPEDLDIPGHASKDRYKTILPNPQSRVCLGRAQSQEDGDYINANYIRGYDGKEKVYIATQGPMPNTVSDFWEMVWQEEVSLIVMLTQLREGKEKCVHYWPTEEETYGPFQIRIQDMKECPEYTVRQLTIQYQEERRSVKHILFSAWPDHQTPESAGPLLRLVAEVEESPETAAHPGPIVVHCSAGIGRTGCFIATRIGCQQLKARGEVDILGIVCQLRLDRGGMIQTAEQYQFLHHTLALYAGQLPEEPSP

## CCC1Nc2ncnc(N3CCN(c4ccccc4)CC3)c2N(Cc2ccc(Br)cc2)C1=O (stereo not drawn)
[1]
  EC50: > 60 µM (not active)
[2]
  EC50: 1.59 µM (active)
[3]
  CC50: > 40 µM (active)

## N#Cc1nc(Cc2cccc3ccccc23)oc1NCc1ccc(F)cc1
[4]
  CC50: > 40 µM (active)

## O=C(CN1CCN(S(=O)(=O)c2ccc(F)cc2)CC1)c1ccc(O)c(O)c1
Protein Tat
  IC50: > 100 µM (active)
Large T antigen
  IC50: 6.55 µM (active)

## O=C(CN1CCN(S(=O)(=O)c2ccc(Cl)s2)CC1)NCc1ccc(Cl)cc1
[4]
  CC50: 15.1 µM (active)

## Cc1ccc(-c2nc3ccccc3o2)cc1NC(=S)NC(=O)/C=C/c1ccco1
[3]
  CC50: 32.9 µM (active)

## Cc1cccc2nc(COc3ccc(Cl)c4cccnc34)cn12
cells
  IC50: 33.2 µM (active)

## C[C@@H](O)C#Cc1ccc2c(c1)O[C@@H](CN(C)Cc1ccc(-c3ccc(Cl)cc3)cc1)[C@@H](C)CN([C@@H](C)CO)S2(=O)=O
[5]
  AC50: 33.4 µM (active)
[6]
  AC50: 1.26 µM (active)
[7]
  AC50: 1.29 µM (active)

## CCc1ccccc1NC(=O)CN(C)Cc1nc(N)nc(Nc2ccccc2C)n1
[8]
  IC50: > 100 µM (not active)
